In US12275721B2, “Indazole carboxamides as kinase inhibitors” (BRISTOL-MYERS SQUIBB COMPANY, priority 2019, dated 2025):

Columns and labels:
[1] = system: MLKL phosphorylation in HT29-L23 human colorectal adenocarcinoma cells; test: MLKL Phosphorylation High-Content Assay; type: cell-based; details: Homo sapiens, necroptosis induced with TNFα, SMAC mimetic and Z-VAD, 6 h, read-out: pMLKL (IC50)
Protocol: MLKL Phosphorylation High-Content Assay
HT29-L23 human colorectal adenocarcinoma cells were maintained in RPMI 1640 medium containing 10% heat-inactivated FBS, 1% Penicillin-Streptomycin and 10 mM HEPES. Cells were seeded at 2,000 cells/well in 384 well tissue culture-treated microplates (Greiner #781090-3B) and incubated at 37° C. (5% CO2/95% O2) for 2 d. On the day of the assay, the cells were treated with test compounds at final concentrations of 6.25 to 0.106 μM for 30 min at 37° C. (5% CO2/95% O2). Necroptopsis was induced using a mixture of human TNFα (35 ng/mL) (Peprotech #300-01A), SMAC mimetic (from US 2015/0322111 A1) (700 nM) and Z-VAD (140 nM) (BD pharmingen #51-6936). Following 6 h incubation at 37° C. (5% CO2/95% O2), the cells were fixed with 4% formaldehyde (ACROS 11969-0010) for 15 min at rt, then permeabilized with phosphate buffered saline (PBS) containing 0.2% Triton-X-100 for 10 min. MLKL phosphorylation was detected using anti-MLKL (phospho S358) antibody (Abcam #ab187091) (1:1000 dilution in Blocking Buffer [PBS supplemented with 0.1% BSA]) with ON incubation at 4° C. After washing three times in PBS, goat anti-rabbit Alexa-488 (1:1000 dilution) (Life Technologies, A1 1008) and Hoechst 33342 (Life Technologies, H3570) (1:2000 dilution) in Blocking Buffer were added for 1 h at rt. Following another three cycles of washes in PBS, the microplates were sealed, and cellular images were acquired in the Cellomics ArrayScan VTI high-content imager equipped with an X1 camera. Fluorescent images were taken using a 10× objective and the 386-23 BGRFRN_BGRFRN and 485-20 BGRFRN_BGRFRN filter sets, for nuclei and MLKL phosphorylation, respectively. The image sets were analyzed using the Compartmental Analysis Bioapplication software (Cellomics). The level of MLKL phosphorylation was quantified as MEAN_CircRingAvglntenRatio. The maximal inhibitory response was defined by the activity induced by Necls (CAS #: 852391-15-2, 6.25 μm). The IC50 value was defined as the concentration of compound that produces 50% of the maximal inhibition. The data were fitted using the 4-parameter logistic equation to calculate the IC50 and Ymax values.

[2] = molecular target: T1, His-GST-TVMV-hRIPK1(1-324) (Homo sapiens, UniProt Q13546); test: RIPK1 HTRF Binding Assay; details: HTRF probe displacement, 1 h at rt
T1 construct: 1 nM His-GST-TVMV-hRIPK1(1-324) in FRET Buffer; made in house; host or cells: Spodoptera frugiperda (Sf9) insect cells, baculovirus (Bac-to-Bac)
T1 sequence (Q13546 1-324): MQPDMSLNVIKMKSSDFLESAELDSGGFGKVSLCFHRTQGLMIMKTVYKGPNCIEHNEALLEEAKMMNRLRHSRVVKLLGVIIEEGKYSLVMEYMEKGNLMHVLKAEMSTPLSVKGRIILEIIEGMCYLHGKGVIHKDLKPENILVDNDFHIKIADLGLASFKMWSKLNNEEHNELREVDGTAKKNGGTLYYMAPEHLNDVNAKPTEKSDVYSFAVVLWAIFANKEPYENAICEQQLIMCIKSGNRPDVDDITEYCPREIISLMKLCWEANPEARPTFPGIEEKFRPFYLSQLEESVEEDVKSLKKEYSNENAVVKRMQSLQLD
Protocol: A solution was prepared containing 0.2 nM Anti GST-Tb (Cisbio, 61GSTTLB), 90.6 nM probe and 1 nM His-GST-TVMV-hRIPK1(1-324) in FRET Buffer (20 mM HEPES, 10 mM MgCl2, 0.015% Brij-35, 4 mM DTT, 0.05 mg/mL BSA). Using Formulatrix Tempest, the detection antibody/enzyme/probe solution ([…]) was dispensed into wells of a 1536 plate (Black Low Binding Polystyrene 1536 Plate (Corning, 3724)) containing 10 nL of compounds of interest at appropriate concentration in DMSO. The plate was incubated at rt for 1 h. FRET was measured using the EnVision plate reader (Excitation: 340 nm, Emission: 520 nm/[…]). Total signal (0% inhibition) was calculated from wells containing 10 nL DMSO only.
Cloning and Baculovirus Expression of RIPK1 Construct
The coding region of human RIPK1(1-324) flanked by NdeI site at 5′ end and stop codon TGA and XhoI site at 3′ end was codon optimized and gene synthesized at GenScript USA Inc. (Piscataway, NJ) and subcloned into a modified pFastBac1 vector (Invitrogen, Carlsbad, CA) with N-terminal His-GST-TVMV tag, to generate His-GST TVMV-hRIPK1(1-324)-pFB. The fidelity of the synthetic fragment was confirmed by sequencing. Baculovirus was generated for the construct using the Bac-to-Bac baculovirus expression system (Invitrogen) according to the manufacturer's protocol. Briefly, recombinant bacmid was isolated from transformed DH10Bac E. coli competent cells 20 (Invitrogen) and used to transfect Spodoptera frugiperda (Sf9) insect cells (Invitrogen). Baculovirus was harvested 72 hours post transfection and a virus stock was prepared by infecting fresh Sf9 cells at a 1/1000 (v/v) ratio for 66 hours. For large scale protein production, Sf9 cells (Expression System, Davis, CA) grown in ESF921 insect medium (Expression System) at 2×10^6 cells/ml were infected with virus stock at a 1/100 (v/v) ratio for 66 hours. The production was carried out either at a 10 L scale in a 22 L cellbag (GE Healthcare Bioscience, Pittsburgh, PA) or at a 20 L scale in a 50 L cellbag using WAVE-Bioreactor System 20/50 (GE Healthcare Bioscience). The infected cells were harvested by centrifugation at 2000 rpm for 20 min at 4° C. in a SORVALL® RC12BP centrifuge. The cell pellets was stored at −70° C. before protein was purified.
Purification of His-GST-TVMV-hRIPK1(1-324)
RIPK1 containing cell paste was resuspended in 50 mM Tris pH 7.5, 150 mM NaCl, 10 mM imidazole, 5% glycerol, 5 mM MgSO4, 1 mM TCEP, 25 U/ml Benzonase, and Complete Protease Inhibitor tablets (1/50 ml, Roche Diagnostics, Indianapolis, IN). The cells were lysed by nitrogen cavitation using an unstirred pressure vessel @ 525 PSI (Parr Instrument Company, Moline, IL). The suspension was clarified by centrifugation at 136,000×g for 40 min, at 4° C. The lysate was decanted from the pellet and passed through a 5 ml NiNTA Superflow cartridge (Qiagen, Valencia, CA) using an AKTA Pure (GE Healthcare). Column was eluted with 10 CV linear gradient into 50 mM Tris 7.5, 150 mM NaCl, 500 mM imidazole, 5% glycerol, 1 mM TCEP. Peak fractions were pooled and loaded directly onto 5 ml GSTrap 4B column (GE Healthcare). Column was washed with 50 mM Tris 7.0, 150 mM NaCl, […], 1 mM DTT and eluted in 10 CV linear gradient into 50 mM Tris 8.0, 150 mM NaCl, 20 mM reduced glutathione, 50% glycerol, 1 mM DTT. Fractions identified by SDS-PAGE as containing RIPK1 were pooled and concentrated using 30 kDa MWCO spin concentrators (Amicon Ultra-15, Millipore, Billerica, MA) and loaded onto a HiLoad 26/600 Superdex 200 column (GE Healthcare) equilibrated in 25 mM Tris 7.5, 150 mM NaCl, 2 mM TCEP, […]. The RTPK1 protein eluted as a dimer off the SEC column. The yield was ˜8 mg/L with a purity […] as determined by Coomassie stain SDS-PAGE gel analysis. […] Protein was aliquoted and stored at −80° C. Using these assays, the IC50 values of the following compounds were determined.

Compound: CNC(=O)c1n[nH]c2cc(-c3nc(C)c(C(=O)NCc4cc(OC(F)(F)F)ccc4F)s3)ccc12 [Example 14, N-(2-fluoro-5-(trifluoromethoxy)benzyl)-4-methyl-2-(3-(methylcarbamoyl)-1H-indazol-6-yl)thiazole-5-carboxamide]
- IC50 [1]: 0.008 µM
- IC50 [2]: 0.007 µM

Compound: CNC(=O)c1n[nH]c2cc(-c3nc(C)c(C(=O)NCC[C@H](O)c4ccc(Cl)cc4)n3C)ccc12 [Example 29, (S)-6-(5-((3-(4-chlorophenyl)-3-hydroxypropyl)carbamoyl)-1,4-dimethyl-1H-imidazol-2-yl)-N-methyl-1H-indazole-3-carboxamide]
- IC50 [1]: 3.3 µM
- IC50 [2]: 1.9 µM

Compound: CNC(=O)c1n[nH]c2cc(-c3nc(C)c(C(=O)NCc4cc(C(F)(F)F)ccc4F)n3C)ccc12 [Example 30, 6-(5-((2-fluoro-5-(trifluoromethyl)benzyl)carbamoyl)-1,4-dimethyl-1H-imidazol-2-yl)-N-methyl-1H-indazole-3-carboxamide]
- IC50 [1]: 0.15 µM
- IC50 [2]: 0.1 µM

Compound: CNC(=O)c1n[nH]c2cc(-c3nc(C)c(C(=O)NC(C)c4cc(OC(F)(F)F)ccc4F)s3)ccc12 (stereo not shown) [Example 19, N-(1-(2-fluoro-5-(trifluoromethoxy)phenyl)ethyl)-4-methyl-2-(3-(methylcarbamoyl)-1H-indazol-6-yl)thiazole-5-carboxamide]
- IC50 [1]: 0.019 µM
- IC50 [2]: 0.013 µM

Compound: CNC(=O)c1n[nH]c2cc(-c3nc(C(=O)NCC[C@@H](O)c4ccc(Cl)cc4)cs3)ccc12 [Example 22, (R)-N-(3-(4-chlorophenyl)-3-hydroxypropyl)-2-(3-(methylcarbamoyl)-1H-indazol-6-yl)thiazole-4-carboxamide]
- IC50 [1]: 1.2 µM
- IC50 [2]: 0.33 µM

Compound: CNC(=O)c1n[nH]c2cc(-c3nc(C)c(C(=O)NCC[C@H](O)c4ccc(Cl)cc4)s3)ccc12 [Example 17, (S)-N-(3-(4-chlorophenyl)-3-hydroxypropyl)-4-methyl-2-(3-(methylcarbamoyl)-1H-indazol-6-yl)thiazole-5-carboxamide]
- IC50 [1]: 0.34 µM
- IC50 [2]: 0.18 µM

Compound: CNC(=O)c1n[nH]c2cc(-c3nc(C)c(C(=O)NCC[C@@H](O)c4ccc(Cl)cc4)s3)ccc12 [Example 16, (R)-N-(3-(4-chlorophenyl)-3-hydroxypropyl)-4-methyl-2-(3-(methylcarbamoyl)-1H-indazol-6-yl)thiazole-5-carboxamide]
- IC50 [1]: 0.21 µM
- IC50 [2]: 0.15 µM

Compound: CNC(=O)c1n[nH]c2cc(-c3nc(C(=O)NCC[C@@H](O)c4ccc(Cl)cc4)c(C)n3C)ccc12 [Example 33, (R)-6-(4-((3-(4-chlorophenyl)-3-hydroxypropyl)carbamoyl)-1,5-dimethyl-1H-imidazol-2-yl)-N-methyl-1H-indazole-3-carboxamide]
- IC50 [1]: 2.2 µM
- IC50 [2]: 0.57 µM

Compound: CNC(=O)c1n[nH]c2cc(-c3nc(C(=O)NCc4cc(OC(F)(F)F)ccc4F)cs3)ccc12 [Example 20, N-(2-fluoro-5-(trifluoromethoxy)benzyl)-2-(3-(methylcarbamoyl)-1H-indazol-6-yl)thiazole-4-carboxamide]
- IC50 [1]: 0.81 µM
- IC50 [2]: 0.4 µM

Compound: CNC(=O)c1n[nH]c2cc(-c3nc(C(=O)NCCC(C)c4ccccc4)cs3)ccc12 (stereo not shown) [Example 21, 2-(3-(methylcarbamoyl)-1H-indazol-6-yl)-N-(3-phenylbutyl)thiazole-4-carboxamide]
- IC50 [1]: 0.81 µM
- IC50 [2]: 0.17 µM

Compound: CNC(=O)c1n[nH]c2cc(-c3ccc(C(=O)NCc4cc(OC(F)(F)F)ccc4F)s3)ccc12 [Example 6, 6-(5-((2-fluoro-5-(trifluoromethoxy)benzyl)carbamoyl)thiophen-2-yl)-N-methyl-1H-indazole-3-carboxamide]
- IC50 [1]: 0.056 µM
- IC50 [2]: 0.031 µM

Compound: CNC(=O)c1n[nH]c2cc(-c3nc(C)c(C(=O)NCC[C@@H](O)c4ccc(Cl)cc4)n3C)ccc12 [Example 28, (R)-6-(5-((3-(4-chlorophenyl)-3-hydroxypropyl)carbamoyl)-1,4-dimethyl-1H-imidazol-2-yl)-N-methyl-1H-indazole-3-carboxamide]
- IC50 [1]: 2.6 µM
- IC50 [2]: 0.46 µM

Compound: CNC(=O)c1n[nH]c2cc(-c3ccc(C(=O)NCC[C@H](O)c4ccc(Cl)cc4)s3)ccc12 [Example 8, (S)-6-(5-((3-(4-chlorophenyl)-3-hydroxypropyl)carbamoyl)thiophen-2-yl)-N-methyl-1H-indazole-3-carboxamide]
- IC50 [1]: 6.3 µM
- IC50 [2]: 0.22 µM

Compound: CNC(=O)c1n[nH]c2cc(-c3nc(C(=O)NCC[C@H](O)c4ccc(Cl)cc4)cs3)ccc12 [Example 23, (S)-N-(3-(4-chlorophenyl)-3-hydroxypropyl)-2-(3-(methylcarbamoyl)-1H-indazol-6-yl)thiazole-4-carboxamide]
- IC50 [1]: 1.6 µM
- IC50 [2]: 0.12 µM
